Read-outs that look alike come from different tables or passages of the source.
Assays:
[1] = tested on: Alternaria alternata; test: Fungicidal activity against Alternaria alternata, mycelial growth inhibition on PDA plate; type: cell-based; conditions: Alternaria alternata
Protocol: (§1) Bioassay method: Stock solution of every test compound was prepared in an appropriate solvent such as N,N-dimethylformamide (DMF), and then diluted to the required test concentrations with sterile water containing 0.1% Tween 80; Pipetted 3 mL of test solution to 27 mL of potato dextrose agar (PDA) medium at 45° C. and poured into a Petri dish to prepare a plate after shaking thoroughly; 6 mm of diameter of fungi cake from the edge of 7-day-old […] colony was inoculated on the central of the plate, wherein mycelium facing down, and cultured in the culture tank at 28° C. The diameter of fungi spread was calculated 4 days later using the control group tested with the diluent only. Test was run 4 times. Data were subjected to EXCEL statistical software analysis and the growth inhibition of the tested compound was calculated according to the corresponding control, the activity was rated on the basis of percentage of growth inhibition using the following rating system: A, inhibition (%)>90; B, 90≧inhibition (%)>70; C, 70≧inhibition (%)>50; D, inhibition (%)≦50.
Fungicidal activities against Alternaria alternata of compounds represented by the general formula (I) were evaluated with the corresponding method in Example 18, and some of the test results are shown in Table 9 to Table 10.

[2] = tested on: Marssonina coronaria; test: Fungicidal activity against Marssonina coronaria; type: cell-based; conditions: 25 mg/L
Protocol: as §1

[3] = tested on: Sclerotinia sclerotiorum; test: Fungicidal activity against Sclerotinia sclerotiorum, mycelial growth inhibition on PDA plate; type: cell-based; conditions: Sclerotinia sclerotiorum; for inhibition at 2.5 µg/mL: 2.5 mg/L; for inhibition at 5 µg/mL: 5 mg/L
Protocol: as §1

[4] = tested on: Alternaria mali; test: Fungicidal activity against Alternaria mali; type: cell-based; conditions: 25 mg/L
Protocol: as §1

[5] = tested on: Sphaceloma ampelinum; test: Fungicidal activity against Sphaceloma ampelinum; type: cell-based; conditions: 25 mg/L
Protocol: as §1

[6] = tested on: Cercospora arachidicola; test: Fungicidal activity against Cercospora arachidicola; type: cell-based; conditions: 25 mg/L
Protocol: as §1

[7] = tested on: Aphis fabae; test: Insecticidal activity against Aphis fabae, dipping of horsebean seedlings; type: in vivo; conditions: 24 h
Protocol: Bioassay method: Stock solution of every test compound was prepared in an appropriate solvent such as N,N-dimethylformamide, and a small amount of Tween 80 was added as emulsification agent, then diluted to the required test concentrations with distilled water, using the control group tested with distilled water only. More than 20 adults of Aphis fabae were transferred to newly unearthed horsebean seedlings and 24 hr later, horsebean seedlings with Aphis fabae were dipped in the test solution for 5 s, then allowed to dry with filter paper, transplanted to the absorbent sponge and covered with a glass tube, then kept in a room for normal cultivation. Each assay contained three replications, and results were averaged. Mortality was assessed 24 hr after the treatment. The activity was rated to A, B, C or D according to the rating system in Example 22.

[8] = tested on: Fusarium oxysporum; test: Fungicidal activity against Fusarium oxysporum; type: cell-based; conditions: 25 mg/L
Protocol: as §1

[9] = tested on: Alternaria solani, Fusarium oxysporum, Marssonina coronaria, Sphaceloma ampelinum, Apple canker, Cercospora arachidicola and Alternaria mali; test: Fungicidal activities against several pathogens (Example 21), comparison with Procymidone; type: cell-based; conditions: several pathogens of Example 21
Protocol: as §1

[10] = tested on: Botrytis cinerea; test: Fungicidal activity against Botrytis cinerea, mycelial growth inhibition on PDA plate; type: cell-based; conditions: Botrytis cinerea; for inhibition at 2.5 µg/mL: 2.5 mg/L; for inhibition at 5 µg/mL: 5 mg/L
Protocol: as §1
Fungicidal activities against Botrytis cinerea of compounds represented by the general formula (I) were evaluated with the corresponding method in Example 18, and some of the test results are shown in Table 6 to Table 8.

[11] = tested on: Alternaria solani; test: Fungicidal activity against Alternaria solani; type: cell-based; conditions: 25 mg/L
Protocol: as §1

[12] = Table 4, read-out: activities against Sclerotinia sclerotiorum (growth inhibition)
[13] = Table 5, read-out: activities against Sclerotinia sclerotiorum (growth inhibition)
[14] = read-out: activities against Aphis fabae (mortality)
[15] = Table 7, read-out: activities against Botrytis cinerea (growth inhibition)
[16] = Table 8, read-out: activities against Botrytis cinerea (growth inhibition)

## CCN(Cc1cnc(Cl)s1)c1nc(OC)ccc1[N+](=O)[O-] [Compound 05, 6-methoxy-N-((2-chlorothiazole-5-yl)methyl)-N-ethyl-3-nitropyridin-2-amine]
[1]; 2.5 mg/L, read-out: activities against Alternaria alternata (growth inhibition)
  inhibition at 2.5 µg/mL: 45%
[1]; 5 mg/L, read-out: activities against Alternaria alternata (growth inhibition)
  inhibition at 5 µg/mL: 75%
[1]; 10 mg/L, read-out: activities against Alternaria alternata (growth inhibition)
  inhibition at 10 µg/mL: 81%
[1]; 25 mg/L, read-out: activities against Alternaria alternata (growth inhibition rating)
  inhibition at 25 µg/mL: 70 to 90%
[2]
  activity against Marssonina coronaria: 78%
[3]; 0.1562 mg/L, Table 5, read-out: activities against Sclerotinia sclerotiorum (growth inhibition)
  inhibition at 0.1562 µg/mL: 63%
[3]; 0.3125 mg/L, Table 5, read-out: activities against Sclerotinia sclerotiorum (growth inhibition)
  inhibition at 0.3125 µg/mL: 63%
[3]; 0.625 mg/L, Table 5, read-out: activities against Sclerotinia sclerotiorum (growth inhibition)
  inhibition at 0.625 µg/mL: 68%
[3]; 1.25 mg/L, Table 4, read-out: activities against Sclerotinia sclerotiorum (growth inhibition)
  inhibition at 1.25 µg/mL: 95%
[3]; 1.255 mg/L, Table 5, read-out: activities against Sclerotinia sclerotiorum (growth inhibition)
  inhibition at 1.255 µg/mL: 73%
[3]; [12]
  inhibition at 2.5 µg/mL: 99%
  inhibition at 5 µg/mL: 100%
[3]; [13]
  inhibition at 2.5 µg/mL: 90%
  inhibition at 5 µg/mL: 96%
[3]; 10 mg/L, Table 4, read-out: activities against Sclerotinia sclerotiorum (growth inhibition)
  inhibition at 10 µg/mL: 100%
[3]; 25 mg/L, read-out: activities against Sclerotinia sclerotiorum (growth inhibition rating)
  inhibition at 25 µg/mL: > 90%
[4]
  activity against Alternaria mali: 82%
[5]
  activity against Sphaceloma ampelinum: 93%
[6]
  activity against Cercospora arachidicola: 88%
[7]; read-out: activities against Aphis fabae (mortality rating)
  mortality at 500 µg/mL: > 90%
[7]; [14]
  mortality at 6.25 µg/mL: 12.7%
  mortality at 25 µg/mL: 46.5%
  mortality at 100 µg/mL: 87.5%
[8]
  activity against Fusarium oxysporum: 38%
[9]
  fungicidal activity compared with the commercial fungicide Procymidone: better than or equal to that of the commercial fungicide Procymidone
[10]; 0.1562 mg/L, Table 8, read-out: activities against Botrytis cinerea (growth inhibition)
  inhibition at 0.1562 µg/mL: 78%
[10]; 0.3125 mg/L, Table 8, read-out: activities against Botrytis cinerea (growth inhibition)
  inhibition at 0.3125 µg/mL: 84%
[10]; 0.625 mg/L, Table 8, read-out: activities against Botrytis cinerea (growth inhibition)
  inhibition at 0.625 µg/mL: 88%
[10]; 1.25 mg/L, Table 7, read-out: activities against Botrytis cinerea (growth inhibition)
  inhibition at 1.25 µg/mL: 89%
[10]; 1.255 mg/L, Table 8, read-out: activities against Botrytis cinerea (growth inhibition)
  inhibition at 1.255 µg/mL: 94%
[10]; [15]
  inhibition at 2.5 µg/mL: 92%
  inhibition at 5 µg/mL: 97%
[10]; [16]
  inhibition at 2.5 µg/mL: 98%
  inhibition at 5 µg/mL: 100%
[10]; 10 mg/L, Table 7, read-out: activities against Botrytis cinerea (growth inhibition)
  inhibition at 10 µg/mL: 100%
[10]; 25 mg/L, read-out: activities against Botrytis cinerea (growth inhibition rating)
  inhibition at 25 µg/mL: > 90%
[11]
  activity against Alternaria solani: 87%

— patent US9386769B2 (HUNAN RESEARCH INSTITUTE OF CHEMICAL INDUSTRY CO., LTD., priority 2011, dated 2016)
